Where two headings read alike, the source gives them in different places.

Data on eleven compounds can be found in US6686353B1, “Diarylalkyl cyclic diamine derivatives as chemokine receptor antagonists” (Teijin Intellectual Property Center Limited, priority 1996, dated 2004).

Experiment [1] addresses T1, human MCP-1 binding to THP-1 cells (Homo sapiens, UniProt P41597).
T1 construct: endogenous in cells; host or cells: THP-1 (human monocytic leukemia cell line), whole cells
T1 sequence (P41597 1-360 isoform P41597-2): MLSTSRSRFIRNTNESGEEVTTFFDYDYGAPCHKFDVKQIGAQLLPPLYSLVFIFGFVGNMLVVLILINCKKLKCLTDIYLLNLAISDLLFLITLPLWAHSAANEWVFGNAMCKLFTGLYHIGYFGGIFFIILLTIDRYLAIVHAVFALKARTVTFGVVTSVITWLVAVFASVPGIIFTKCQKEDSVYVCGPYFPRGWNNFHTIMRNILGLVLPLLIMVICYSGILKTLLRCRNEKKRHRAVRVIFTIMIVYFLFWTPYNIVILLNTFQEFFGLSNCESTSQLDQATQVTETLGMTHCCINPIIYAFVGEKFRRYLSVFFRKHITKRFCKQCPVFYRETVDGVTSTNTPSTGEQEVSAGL
As to the kind of experiment: Inhibition of [125I]-labeled human MCP-1 binding to THP-1 cells. As to conditions: at 100 μM test compound; read-out: inhibitory activity (inhibition of human MCP-1 binding to THP-1 cells). An excerpt: Measurement of Inhibition of MCP-1 Binding to TP-1 Cells
1. Construction of Recombinant Baculovirus Carrying the Human MCP-1 Gene
Based on the previously published human MCP-1 gene sequence (for example T. Yoshimura et al., Febs Letters, 1989, 244, 487-493), two synthetic DNA primers (5′-[…]-3′ and 5′-[…]-3′) flanked by restriction enzyme sites were used to amplify a DNA fragment from cDNA derived from human endothelial cells (purchased from Kurabow Co.); the amplified fragment was cut with the restriction enzymes (PstI and XbaI), ligated into a transfer vector pVL1393 (Invitrogen Co.), and the resulting vector was co-transfected along with infectious baculovirus into Sf-9 insect cells and the supernatant was plaque assayed to yield human MCP-1 gene baculovirus recombinant.
2. Synthesis of [^125I]-labeled Human MCP-1 Expressed in Baculovirus
Using the method of K. Ishii et al. (Biochem Biophys Research Communications 1995, 206, 955-961), 5×10^6 Sf-6 insect cells was infected with 5×10^7 PFU (plaque forming units) of the above human MCP-1 recombinant baculovirus and cultured for 7 days in Ex-Cell 401 medium. The culture supernatant was affinity purified using a heparin Sepharose column (Pharmacia Co.) and then further purified using reverse phase HPLC (Vydac C18 column) to prepare purified human MCP-1. The purified human MCP-1 was protein labeled by Amersham Co. using the Bolton Hunter method to yield [^125I]-labeled baculovirus expressed human MCP-1 (specific activity 2000 Ci/mmol).
3. Measurement of Inhibition of Binding of [^125I]-labeled Baculovirus Expressed Human MCP-1 to THP-1 Cells
(§1) Human monocytic leukemia cell line THP-1 was suspended in assay buffer (RPMI-1640 (Gibco-BRL Co.) containing 0.1% BSA and 25 mM HEPES adjusted to pH 7.4) to give a cell suspension of a concentration of 1×10^7 cells/mL. The test compound was diluted in the assay buffer and used as the test compound solution. [^125I]-labeled human MCP-1 described above was diluted in assay buffer to 1 mCi/mL and used as the labeled ligand solution. In a 96 well filter plate (Millipore Co.), 25 μL of test compound solution, 25 μL of labeled ligand solution and 50 μL of cell suspension were aliquoted into each well in this order, stirred (total reaction volume 100 μL), and incubated for one hour at 18° C.
After the reaction, the reaction solution was filtered, and the filter was washed twice with 200 μL of cold PBS (200 μL of cold PBS was added and then filtered). The filter was removed and placed in an RIA tube (Iuchi Seieido Co.,), and the radioactivity retained by the cells on the filter were measured using a gamma counter (Aloka Co.).
To calculate the ability of test compound to inhibit binding of human MCP-1 to THP-1 cells, non-specific binding determined by adding 100 ng of unlabeled human MCP-1 in place of the test compound was subtracted, while the counts with no test compound added was taken as 100%.
Inhibition (%)=(1−(A−B)/(C−B))×100
(A, counts with test compound added; B, counts with 100 ng of unlabeled human […] added; C, counts with [^125I]-labeled human MCP-1 added).

For experiment [2], the target named is T2, human MIP-1α binding to THP-1 cells (Homo sapiens, UniProt P32246).
T2 construct: endogenous in cells; host or cells: THP-1 (human monocytic leukemia cell line), whole cells
T2 sequence (P32246 1-355): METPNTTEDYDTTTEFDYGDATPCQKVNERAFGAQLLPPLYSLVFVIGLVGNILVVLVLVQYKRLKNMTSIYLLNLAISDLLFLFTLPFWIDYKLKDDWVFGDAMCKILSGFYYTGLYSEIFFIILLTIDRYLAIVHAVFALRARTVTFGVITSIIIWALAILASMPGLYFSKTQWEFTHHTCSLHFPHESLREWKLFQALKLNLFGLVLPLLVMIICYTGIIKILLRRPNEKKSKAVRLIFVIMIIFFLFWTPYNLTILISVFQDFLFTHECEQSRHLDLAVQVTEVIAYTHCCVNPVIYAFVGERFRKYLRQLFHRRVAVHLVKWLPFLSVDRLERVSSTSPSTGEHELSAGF
The experiment in a line: Inhibition of MIP-1α binding to THP-1 cells. Particulars: at 100 μM test compound; read-out: inhibitory activity (inhibition of human MIP-1α binding to THP-1 cells). The method, then: Measurement of Inhibition of MIP-1α Binding to THP-1 Cells by Test Compounds
as §1, with “Iodinated” for “[^125I]-labeled”, “MIP-1α (DuPont NEN Co.)” for “MCP-1 described above”, “250 nCi/mL” for “1 mCi/mL”, “the” for “the labeled”, “solution.” for “solution,”
After the reaction, the reaction solution was filtered, and the filter was washed twice with 200 μL of cold PBS (200 μL of cold PBS was added and then filtered). The filter was removed and placed in an RIA tube (Iuchi Seieido Co.) and the radioactivity retained by the cells on the filter were measured using a gamma counter (Aloka Co.).
To calculate the ability of test compounds to inhibit binding of human MIP-1α to THP-1 cells, non-specific binding determined by adding 100 ng of unlabeled human MIP-1α (Peprotech Co.) in place of the test compound was subtracted, while the counts with no test compound added was taken as 100%. […]

In the next experiment the target is T3, MCP-1 receptor (Homo sapiens, UniProt P41597).
T3 construct: expressed in transfected cells
T3 sequence (P41597 1-360 isoform P41597-2): T1 sequence (P41597 1-360 isoform P41597-2)
The experiment in a line: Inhibition of binding of [125I]-labeled human MCP-1 to cells expressing the MCP-1 receptor (293-EBNA transfectant). As to conditions: dose dependent inhibition; 293-EBNA cells expressing MCP-1 receptor; read-out: 50% inhibitory concentration (IC50), MCP-1 binding to MCP-1 receptor expressing cells. From the text: Measurement of Inhibition of Binding of [^125I]-labeled Human MCP-1 to Cells Expressing the MCP-1 Receptor
1. Derivation of Cells Expressing the MCP-1 Receptor
cDNA fragment containing the MCP-1 receptor reported by S. Yamagami et al., Biochemical Biophysical Research Communications 1994, 202, 1156-1162) was cloned into the expression plasmid pCEP4 (Invitrogen Co.) at the NotI site, and the plasmid obtained was transfected into the human kidney epithelial cell line 293-EBNA using the Lipofectamine reagent (Gibco-BRL Co.). The cells were cultured in the presence of the selective agent (Hygromycin), and a stably expressing transfectant line was obtained. The express ion of the receptor was confirmed by binding of [^125I]-labeled human MCP-1.
2. Measurement of Inhibition of Binding of [^125I]-labeled Baculovirus Expressed Human MCP-1 to the MCP-1 Receptor Expressing Cells
The MCP-1 receptor expressing cells on tissue culture dishes were scraped using a call scraper and suspended in assay buffer (D-MEM(Gibco-BRL Co.) containing 0.1% BSA and 25 mM HEPES adjust ed to pH 7.4) to give a cell suspension of a concentration of 6×10^6 cellls/mL. The test compound was diluted in the assay buffer to concentrations of […], and 100 μM. The remainder of the procedure was as described in Example 163.

The subject of another experiment is THP-1 cells. The experiment in a line: Inhibition of cell chemotaxis caused by MCP-1 (THP-1 cells). As to conditions: MCP-1 20 ng/mL, 37° C. 2 hr, read-out: 50% inhibition concentration (IC50) of cell migration. The class given is cell-based, human. The method, then:
Measurement of Inhibition of Cell Chemotaxis
In order to determine the inhibition of call chemotaxis by the compounds of this invention, we measured call chemotaxis caused by monocyte chemotactic factor MCP-1 using the human monocytic leukemia cell line THP-1 as the chemotactic cell according to the method of Fall et al. (J. Immunol. Methods, […], 33, 239-247). 2×10^6 cells/mL of THP-1 cells (suspended in RPMI-1640 (Flow Laboratories Co.) +10% FCS) was placed in the upper chamber (200 μL) of a 96 well micro-chemotaxis chamber (Neuroprobe, registered tradename), and human recombinant MCP-1 in a same solution (Peprotech Co.) at a final concentration of 20 ng/mL was placed in the lower chamber, with a polycarbonate filter (PVP-free, Neuroprobe; registered tradename) placed between the two chambers, These were incubated at 37° C. for 2 hr in 5% CO2.
The filter was removed, and the cells which had migrated to the underside of the filter was fixed, stained using Diff Quick (Kokusai Shiyaku Co.) and then quantitated using a plate reader (Molecular Device Co.) at a wavelength of 550 nm to determine the index of cell migration as a mean of 3 wells, In addition. test compounds were placed in the upper chamber along with THP-1, and the inhibition of cell migration (inhibition IC50 (μM)) was determined. […]

With `NC(=O)c1ccc(CN2CCCN(CCC(c3ccccc3)c3ccccc3)CC2)cc1` [Compound No. 55, 1-(3,3-Diphenylpropyl)-4-(4-carbamoylbenzyl)homopiperazine], in experiment [1], the inhibition at 100 µM was over 20%.

In the case of `OC(CCN1CCCN(Cc2ccc(Cl)cc2)CC1)(c1ccccc1)c1ccccc1` [Compound No. 107, 1-(3-Hydroxy-3,3-diphenylpropyl)-4-(4-chlorobenzyl)homopiperazine], the inhibition at 100 µM in experiment [1] and in experiment [2] was over 20% each time.

With `CS(=O)(=O)c1ccc(CN2CCCN(CCC(O)(c3ccc(O)cc3)c3ccc(O)cc3)CC2)cc1` [Compound No. 119, 1-[3,3-bis(4-Hydroxyphenyl)-3-hydroxypropyl]-4-[4-(methylsulfonyl)benzyl]homopiperazine], the inhibition at 100 µM in experiment [1] is over 20%.

For `CS(=O)(=O)c1ccc(CN2CCCN(CCC(O)(c3ccco3)c3ccco3)CC2)cc1` [Compound No. 129, 1-[3,3-Di(2-furyl)-3-hydroxypropyl]-4-[4-(methylsulfonyl)benzyl]homopiperazine], in experiment [1], the inhibition at 100 µM is over 20%.

In the case of `Cn1cccc1C(O)(CCN1CCCN(Cc2ccc(S(C)(=O)=O)cc2)CC1)c1ccccc1` (centres unmarked) [Compound No. 136, 1-[3-Hydroxy-3-(1-methyl-2-pyrrolyl)-3-phenylpropyl]-4-[4-(methylsulfonyl)benzyl]homopiperazine], in experiment [1], the inhibition at 100 µM was over 20%.

As for `CC(=O)Nc1cccc(C(O)(CCN2CCCN(Cc3ccc(S(C)(=O)=O)cc3)CC2)c2ccccc2)c1` (centres unmarked) [Compound No. 162, 1-[3-(3-Acetylaminophenyl)-3-hydroxy-3-phenylpropyl]-4-[4-(methylsulfonyl)benzyl]homopiperazine], the inhibition at 100 µM in experiment [1] is over 20%.

As for `CC(C)(C)OC(=O)N1CCCN(CCC(O)(c2ccccc2)c2cccc(O)c2)CC1` (centres unmarked) [Compound No. 294, 1-(tert-butyloxycarbonyl)-4-[3-hydroxy-3-(3-hydroxyphenyl)-3-phenylpropyl]homopiperazine], the inhibition at 100 µM in experiment [1] was over 20%.

With `Oc1cccc(C(O)(CCN2CCCNCC2)c2ccccc2)c1` (centres unmarked) [Compound No. 295, 1-[3-hydroxy-3-(3-hydroxyphenyl)-3-phenylpropyl]homopiperazine], in experiment [1], the inhibition at 100 µM is over 20%.

For `CC(=O)N1CCCN(CCC(O)(c2ccccc2)c2cccc(O)c2)CC1` (centres unmarked) [Compound No. 296, 1-acetyl-4-[3-hydroxy-3-(3-hydroxyphenyl)-3-phenylpropyl]homopiperazine], the inhibition at 100 µM in experiment [1] is over 20%.

For the compound `CS(=O)(=O)c1ccc(CN2CCCN(CCC(c3ccccc3)c3ccccc3)CC2)cc1` [compound 36], the figures for the IC50 on MCP-1 receptor and in the experiment with THP-1 cells (Homo sapiens) were 17 µM and 9 µM, respectively. Also, in experiment [1], the inhibition at 100 µM was over 20%.

For `c1ccc(C(CCN2CCCN(Cc3ccncc3)CC2)c2ccccc2)cc1` [compound 240], the IC50 in the experiment with THP-1 cells was determined as 30 µM.

The term inhibition denotes the change of the read-out against control, counted positive when it falls.
